Measurements reported in publication PMC1084349 (BMC Neuroscience, 2005).
Where a SMILES comes first, the peptide text is derived from it.

Tests used:
[1] = system: hTAS1R2 and tas1r3-hN-rTM; assay: Calcium mobilization (FLIPR), chimera with human N-terminus and rat transmembrane region; assay type: cell-based; details: asp 15 mM; cyc 30 mM; neo 0.1 mM; sac 10 mM; suc 100 mM; stev 1 mM
Source text: The receptor chimeras of Tas1r3 were constructed using recombinant PCR. In the first reactions the N-terminal and the C-terminal part containing the seven transmembrane domains of hTAS1R3 and rTas1r3 were amplified from plasmid DNA using Ultra Pfu Polymerase (Stratagene). For the hTAS1R3 and rTas1r3 N-termini the forward vector-anchored primer (CMV: […]) and a reverse gene specific primer ([…]) were used. The hTAS1R3 and rTas1r3 C-terminal part were amplified with forward gene specific primer ([…]) and a reverse vector-anchored primer ([…]). PCR conditions were: 5 min, 94°C, 24 cycles 1 min 94°C, 0.5 min 64°C, 2 min 72°C; 5 min 72°C. The amplicons were purified using the Highpure PCR Product Purification Kit (Roche) and used as template for the second PCR. To create the chimeric receptor tas1r3-hN-rTM, equimolar amounts (~50 ng) of the hTAS1R3 N-terminus and rTas1r3 transmembrane domains were combined without additional oligonucleotides. PCR conditions were: 5 min 94°C; 15 cycles of 2 min 64°C, 2 min 72°C and 0.5 min 94°C; followed by 5 min 64°C and 10 min 72°C. […] These chimeras were cloned into pcDNA5/FRT.
The cDNAs were transiently transfected into HEK293T cells stably expressing the chimeric G-protein subunit Gα16gust44 [20] using Lipofectamine 2000 (Invitrogen) according to the manufacturer's protocol. 3–4 hours after transfection, DMEM was replaced by low-glucose DMEM supplemented with GlutaMAX and 10% dialyzed FBS (Invitrogen). 22–44 hours later, cells were loaded for 1 hour with the calcium sensitive dye Fluo4-AM (2 μg/ml in DMEM, Molecular Probes). Cells were washed 3x in solution C1 (130 mM NaCl, 5 mM KCl, 10 mM Hepes, 2 mM CaCl2, and 5 mM Glucose, pH 7,4). Calcium mobilization was monitored by an automated fluorometric imaging plate reader (FLIPR, Molecular Devices). Ligands (Sigma-Aldrich, Merck) were dissolved in C1 solution. All data were collected from at least two independent experiments carried out in triplicate. The obtained calcium signals were corrected for the response of mock transfected cells and normalized to the fluorescence of cells prior to the stimulus using ΔF/F=(F-F0)/F0. […]
All sweeteners were used at concentrations which were close to the maximal obtainable signal. (c) Alignment of amino acid sequences of the human, rat, and mouse Tas1r3 transmembrane regions. Color code: white, identical; grey, conservative; dark-grey, similar; black, non-similar. TM, predicted transmembrane domain, indicated by a black bar. Dots indicate the location of the primer used to generate the chimeric rat-human Tas1r3 receptors. Asterisks denote amino acid positions that are identical in rat and mouse but variable between humans and rodents and are located in the extracellular loops or the upper part of the transmembran regions. Boxes indicate the several rTas1r3 mutants m1 – m7, including the amino acid substitutions. m6/1 – m6/3 signified the reconverted amino acid of mutant m6.

[2] = molecular target: T1, hTAS1R2-hTAS1R3 (Homo sapiens, UniProt Q7RTX0+Q8TE23); assay: Calcium mobilization (FLIPR) in transfected HEK293T-Gα16gust44 cells, human sweet receptor; details: asp 15 mM; cyc 30 mM; neo 0.1 mM; sac 10 mM; suc 100 mM; stev 1 mM
T1 sequence (Q8TE23 20-839): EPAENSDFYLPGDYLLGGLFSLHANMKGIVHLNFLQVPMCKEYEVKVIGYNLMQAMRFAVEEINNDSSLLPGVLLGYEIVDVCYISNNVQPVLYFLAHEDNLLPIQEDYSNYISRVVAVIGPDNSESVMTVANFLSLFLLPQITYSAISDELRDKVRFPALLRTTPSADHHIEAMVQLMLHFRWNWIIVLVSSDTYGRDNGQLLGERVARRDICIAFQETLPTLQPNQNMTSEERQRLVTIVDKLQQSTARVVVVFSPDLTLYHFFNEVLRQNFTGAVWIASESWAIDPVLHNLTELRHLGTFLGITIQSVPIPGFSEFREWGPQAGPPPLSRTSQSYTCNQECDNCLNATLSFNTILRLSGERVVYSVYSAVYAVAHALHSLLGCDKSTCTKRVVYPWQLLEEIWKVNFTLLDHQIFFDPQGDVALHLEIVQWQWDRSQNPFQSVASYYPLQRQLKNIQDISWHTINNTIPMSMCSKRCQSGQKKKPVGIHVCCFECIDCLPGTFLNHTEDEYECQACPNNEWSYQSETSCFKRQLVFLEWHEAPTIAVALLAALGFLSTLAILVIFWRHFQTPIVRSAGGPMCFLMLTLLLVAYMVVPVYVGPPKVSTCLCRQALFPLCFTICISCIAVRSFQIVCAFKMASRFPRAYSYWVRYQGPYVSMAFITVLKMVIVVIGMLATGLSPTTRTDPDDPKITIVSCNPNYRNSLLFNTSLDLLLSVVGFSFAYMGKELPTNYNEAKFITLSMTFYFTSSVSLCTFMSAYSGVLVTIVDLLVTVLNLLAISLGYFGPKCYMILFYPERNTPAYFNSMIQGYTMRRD
T1 sequence (Q7RTX0 21-852): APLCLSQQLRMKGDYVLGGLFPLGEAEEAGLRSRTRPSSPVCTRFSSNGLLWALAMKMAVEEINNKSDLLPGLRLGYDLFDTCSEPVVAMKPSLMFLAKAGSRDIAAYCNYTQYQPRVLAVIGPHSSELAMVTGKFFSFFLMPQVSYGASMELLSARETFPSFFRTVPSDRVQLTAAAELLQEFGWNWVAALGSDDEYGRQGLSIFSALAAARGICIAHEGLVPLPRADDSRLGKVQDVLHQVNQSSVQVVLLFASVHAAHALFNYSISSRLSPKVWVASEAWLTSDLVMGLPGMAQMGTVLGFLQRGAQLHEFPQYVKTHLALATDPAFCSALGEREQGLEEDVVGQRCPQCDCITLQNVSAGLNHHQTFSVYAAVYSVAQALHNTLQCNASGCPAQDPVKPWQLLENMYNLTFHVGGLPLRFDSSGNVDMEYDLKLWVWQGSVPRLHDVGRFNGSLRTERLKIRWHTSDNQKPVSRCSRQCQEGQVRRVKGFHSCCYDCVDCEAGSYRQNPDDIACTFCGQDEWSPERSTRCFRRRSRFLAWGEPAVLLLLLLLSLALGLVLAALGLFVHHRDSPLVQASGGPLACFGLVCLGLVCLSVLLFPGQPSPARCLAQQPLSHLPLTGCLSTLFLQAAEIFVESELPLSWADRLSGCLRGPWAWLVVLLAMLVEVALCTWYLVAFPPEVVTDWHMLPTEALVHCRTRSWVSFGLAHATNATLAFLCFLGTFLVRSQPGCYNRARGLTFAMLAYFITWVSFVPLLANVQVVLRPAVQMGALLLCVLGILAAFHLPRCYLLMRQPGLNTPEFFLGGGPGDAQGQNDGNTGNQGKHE

[3] = system: human TAS1R2-TAS1R3 heteromer; details: cited from earlier work

Row | Structure (SMILES) | activation of receptor (calcium response) [1] | activation of receptor (calcium response) [2] | activation of heteromer [3]
1 | COC(=O)[C@H](Cc1ccccc1)NC(=O)[C@@H](N)CC(=O)O [aspartame] (HELM PEPTIDE1{D.F.[CO[*:1]]}$$$$V2.0) | responded | activated the human receptor | only activate the human
2 | O=S(=O)(O)NC1CCCCC1 [cyclamate] | not | activated the human receptor | only activate the human
3 | COc1ccc(CCC(=O)c2c(O)cc(O[C@@H]3O[C@H](CO)[C@@H](O)[C@H](O)[C@H]3O[C@@H]3O[C@@H](C)[C@H](O)[C@@H](O)[C@H]3O)cc2O)cc1O [neohesperidine dihydrochalcone] | not | activated the human receptor | 
4 | C=C1C[C@@]23CC[C@H]4[C@@](C)(CCC[C@@]4(C)C(=O)O[C@@H]4O[C@H](CO)[C@@H](O)[C@H](O)[C@H]4O)[C@@H]2CC[C@]1(O[C@@H]1O[C@H](CO)[C@@H](O)[C@H](O)[C@H]1O[C@@H]1O[C@H](CO)[C@@H](O)[C@H](O)[C@H]1O)C3 [stevioside] | responded | activated the human receptor | 
5 | OC[C@H]1O[C@@](CO)(O[C@H]2O[C@H](CO)[C@@H](O)[C@H](O)[C@H]2O)[C@@H](O)[C@@H]1O [sucrose] | responded | activated the human receptor | 
